# According to US20110319274A1, “Identification of Compounds Modifying a Cellular Response” (Carlsberg A/S, priority 2004, published 2011):
# Tested on: GFP expressing U2OS cells and Hek293 cells
# Assay: Adhesion peptide screening for low fluorescence/high adherence properties (FABS, microscope)
# Assay type: cell-based, Human
# Conditions: re-synthesized peptides on beads
# Method: An adhesion D-amino peptide library was synthesized (500,000 members) as described above in Example 1 and screened for low fluorescence/high adherence properties. This was done in 4 steps:
# 1) Selection of low fluorescent beads by Fluorescence Activated Bead Sorting (FABS).
# The 500,000 member adhesion peptide library was FABSorted and 150,000 low fluorescent beads were isolated.
# 2) Selection of beads with good cell adhesion properties.
# The 150,000 low fluorescent beads were incubated with GFP expressing U2OS cells followed by FABS sorting for high fluorescence (high cell adhesion). 536 beads were isolated.
# 3) Identification and isolation of beads with high Hek293 cell adherence properties.
# The 536 beads were cleared for U2OS cells and incubated with GFP expressing Hek293 cells. 47 beads with high cell adhesion properties were isolated using a fluorescence microscope.
# 4) Sequence elucidation and re-synthesis of selected peptides.
# 22 peptides were sequenced and six of them were re-synthesized. Based on Structure-Activity of the six peptides, four additional ones (AP-7 […] AP-10) were synthesized.
substance,measurement,value
arg-gln-arg-ile-arg (RQRIR; Cell adhesion peptide) [SEQ IS 35],overall performance (low fluorescence/high adherence properties),best overall performance
